Assay results as given in patent US9586951B2 (FUJIFILM Corporation, priority 2013, dated 2017).
pIC50: −log10 of the molar value. Counter-ions that a name gives are not always drawn.

Target: T1, ATM (Homo sapiens, UniProt Q13315)
T1 construct: detecting phosphorylation of Chk2 in a human non-small cell lung cancer cell line NCI-H460 (ATCC company); host or cells: NCI-H460 human non-small cell lung cancer cells
Test: ATM inhibition test (phosphorylation of Chk2 generated by ionizing radiation, AlphaScreen SureFire)
Format: cell-based
Details: phosphorylated Chk2 in NCI-H460 cells, ionizing radiation 8Gy, 1 hour after test compound treatment; read-out: ATM inhibitory activity
Procedure, shortened: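 NCI-H460 cells treated with compound for 1 hour, then irradiated with 8Gy and incubated 1 hour at 37° C. Phospho-Chk2 measured by AlphaScreen SureFire. Inhibition ratio calculated relative to untreated irradiated and non-irradiated wells.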

T1 sequence (Q13315 whole entry): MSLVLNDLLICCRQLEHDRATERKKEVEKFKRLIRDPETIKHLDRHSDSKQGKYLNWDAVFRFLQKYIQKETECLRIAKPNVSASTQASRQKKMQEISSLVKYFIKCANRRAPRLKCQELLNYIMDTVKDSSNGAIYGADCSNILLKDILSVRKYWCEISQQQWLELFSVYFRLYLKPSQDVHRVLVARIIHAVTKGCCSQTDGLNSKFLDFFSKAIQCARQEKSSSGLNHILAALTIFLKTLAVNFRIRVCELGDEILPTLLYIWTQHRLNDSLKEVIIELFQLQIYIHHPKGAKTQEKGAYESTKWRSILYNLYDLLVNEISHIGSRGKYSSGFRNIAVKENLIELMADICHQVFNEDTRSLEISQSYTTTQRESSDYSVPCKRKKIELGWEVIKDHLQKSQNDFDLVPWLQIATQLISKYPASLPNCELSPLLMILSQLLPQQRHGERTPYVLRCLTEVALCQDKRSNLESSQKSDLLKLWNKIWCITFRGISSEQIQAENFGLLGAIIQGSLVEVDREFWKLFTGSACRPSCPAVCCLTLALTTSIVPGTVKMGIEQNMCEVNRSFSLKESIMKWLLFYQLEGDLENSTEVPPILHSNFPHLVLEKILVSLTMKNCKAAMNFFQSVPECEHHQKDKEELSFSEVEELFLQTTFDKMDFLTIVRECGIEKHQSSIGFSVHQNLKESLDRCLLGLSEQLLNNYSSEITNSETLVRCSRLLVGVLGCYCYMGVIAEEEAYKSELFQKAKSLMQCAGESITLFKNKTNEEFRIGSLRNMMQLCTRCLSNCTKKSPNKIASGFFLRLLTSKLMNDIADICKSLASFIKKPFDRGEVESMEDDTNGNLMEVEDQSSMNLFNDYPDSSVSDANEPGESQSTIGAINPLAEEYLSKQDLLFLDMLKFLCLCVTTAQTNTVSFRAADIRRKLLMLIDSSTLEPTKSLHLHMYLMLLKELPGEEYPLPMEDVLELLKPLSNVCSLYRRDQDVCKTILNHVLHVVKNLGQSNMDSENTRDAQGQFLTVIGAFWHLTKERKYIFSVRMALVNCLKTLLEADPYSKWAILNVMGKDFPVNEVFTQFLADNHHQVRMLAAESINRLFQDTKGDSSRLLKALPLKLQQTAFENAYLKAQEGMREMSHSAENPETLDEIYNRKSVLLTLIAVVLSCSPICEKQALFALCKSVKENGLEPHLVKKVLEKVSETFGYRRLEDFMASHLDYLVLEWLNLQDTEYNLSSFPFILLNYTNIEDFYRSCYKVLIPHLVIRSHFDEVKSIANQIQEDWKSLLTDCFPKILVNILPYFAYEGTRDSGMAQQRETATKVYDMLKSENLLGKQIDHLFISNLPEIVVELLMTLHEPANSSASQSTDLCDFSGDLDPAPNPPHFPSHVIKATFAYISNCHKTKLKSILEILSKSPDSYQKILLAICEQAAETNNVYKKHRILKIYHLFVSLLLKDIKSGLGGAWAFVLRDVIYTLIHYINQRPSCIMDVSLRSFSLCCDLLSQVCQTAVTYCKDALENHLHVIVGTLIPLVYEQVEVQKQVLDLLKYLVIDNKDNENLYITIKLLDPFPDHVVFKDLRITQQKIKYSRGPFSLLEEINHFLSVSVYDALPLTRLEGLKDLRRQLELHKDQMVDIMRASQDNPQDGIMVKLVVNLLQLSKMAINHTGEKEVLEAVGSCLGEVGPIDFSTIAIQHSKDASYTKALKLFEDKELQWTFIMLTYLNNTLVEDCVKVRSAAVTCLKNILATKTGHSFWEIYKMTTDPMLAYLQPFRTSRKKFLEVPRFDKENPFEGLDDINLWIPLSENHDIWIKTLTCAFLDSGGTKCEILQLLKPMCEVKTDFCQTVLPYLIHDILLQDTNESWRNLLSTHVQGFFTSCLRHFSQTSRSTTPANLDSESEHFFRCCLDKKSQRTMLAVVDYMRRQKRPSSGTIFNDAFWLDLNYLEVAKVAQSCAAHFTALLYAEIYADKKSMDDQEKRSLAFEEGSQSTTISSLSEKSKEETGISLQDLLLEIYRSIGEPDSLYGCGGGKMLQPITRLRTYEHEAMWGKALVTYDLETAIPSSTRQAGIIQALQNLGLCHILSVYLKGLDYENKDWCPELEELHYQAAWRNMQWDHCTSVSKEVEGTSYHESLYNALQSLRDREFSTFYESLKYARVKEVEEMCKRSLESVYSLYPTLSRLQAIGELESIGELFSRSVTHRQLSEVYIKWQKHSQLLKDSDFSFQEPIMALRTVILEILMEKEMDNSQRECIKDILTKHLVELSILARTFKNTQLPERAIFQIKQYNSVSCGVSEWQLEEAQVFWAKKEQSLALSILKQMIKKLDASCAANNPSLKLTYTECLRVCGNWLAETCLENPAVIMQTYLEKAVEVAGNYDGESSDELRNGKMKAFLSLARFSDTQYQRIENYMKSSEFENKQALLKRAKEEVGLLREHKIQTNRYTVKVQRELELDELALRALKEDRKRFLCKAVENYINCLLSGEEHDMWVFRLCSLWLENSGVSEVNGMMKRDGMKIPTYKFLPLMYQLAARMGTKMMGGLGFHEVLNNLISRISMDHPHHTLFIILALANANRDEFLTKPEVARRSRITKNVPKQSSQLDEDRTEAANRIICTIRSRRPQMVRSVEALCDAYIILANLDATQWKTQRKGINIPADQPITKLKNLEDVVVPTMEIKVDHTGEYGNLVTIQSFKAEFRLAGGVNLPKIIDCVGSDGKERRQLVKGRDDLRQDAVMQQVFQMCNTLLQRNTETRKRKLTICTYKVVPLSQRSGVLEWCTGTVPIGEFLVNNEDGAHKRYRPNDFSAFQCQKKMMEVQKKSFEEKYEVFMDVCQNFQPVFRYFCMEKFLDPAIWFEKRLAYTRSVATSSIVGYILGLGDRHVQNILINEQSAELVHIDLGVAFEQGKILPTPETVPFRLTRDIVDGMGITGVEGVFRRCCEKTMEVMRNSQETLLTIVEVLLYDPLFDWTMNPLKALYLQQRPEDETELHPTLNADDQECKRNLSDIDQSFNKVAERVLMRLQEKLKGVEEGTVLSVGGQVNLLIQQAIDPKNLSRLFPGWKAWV

pIC50 | Structure (SMILES)
6.30 to 7.00 | COc1ccc(CN2CCC(Nc3ccc4c(c3)Cc3cccc(-c5cc(N6CCOCC6)cc(=O)[nH]5)c3O4)CC2)cn1 [Example 2-28-6, 6-(7-((1-((6-Methoxypyridin-3-yl)methyl)piperidin-4-yl)amino)-9H-xanthen-4-yl)-4-morpholino pyridin-2(1H)-one]
6.30 to 7.00 | CC(CN1CCN(Cc2ccccn2)CC1)Nc1ccc2c(c1)Sc1cccc(-c3cc(N4CCOCC4)cc(=O)[nH]3)c1S2 (stereo not drawn) [Example 1-15-2, 4-Morpholino-6-(7-((1-(4-(pyridin-2-ylmethyl)piperazin-1-yl)propan-2-yl)amino)thianthren-1-yl)pyridin-2(1H)-one]
5.70 to 6.30 | O=c1cc(N2CCOCC2)cc(-c2cccc3c2Sc2ccc(NCc4cccnn4)cc2C3)[nH]1 [Example 3-8-12]
6.30 to 7.00 | O=c1cc(N2CCOCC2)cc(-c2cccc3c2Sc2ccc(NC(CO)CN4CCCCC4)cc2S3)[nH]1 (stereo not drawn) [Example 1-37-4, 6-(7-((1-Hydroxy-3-(piperidin-1-yl)propan-2-yl)amino)thianthren-1-yl)-4-morpholino pyridin-2(1H)-one]
6.30 to 7.00 | CC(CCN1CCCC1)Nc1ccc2c(c1)Sc1cccc(-c3cc(N4CCOCC4)cc(=O)[nH]3)c1S2 (stereo not drawn) [Example 1-42-4, 4-Morpholino-6-(7-((4-(pyrrolidin-1-yl)butan-2-yl)amino)thianthren-1-yl) pyridin-2(1H)-one]
6.30 to 7.00 | Cc1ncsc1CNc1ccc2c(c1)Cc1cccc(-c3cc(N4CCOCC4)cc(=O)[nH]3)c1O2 [Example 2-13-2, 6-(7-(((4-Methylthiazol-5-yl)methyl)amino)-9H-xanthen-4-yl)-4-morpholino pyridin-2(1H)-one]
6.30 to 7.00 | O=c1cc(N2CCOCC2)cc(-c2nccc3c2Oc2ccc(NCc4cccc(Cl)n4)cc2C3)[nH]1 [Example 2-41-8, 6-(7-(((6-Chloropyridin-2-yl)methlyl)anlino)-5H-chromeno [2,3-c]pyridin-1-yl)-4-morpholino pyridin-2(1H)-one]
6.30 to 7.00 | CCC(C(=O)Nc1ccc2c(c1)Sc1cccc(-c3cc(N4CCOCC4)cc(=O)[nH]3)c1S2)N1CCOCC1 (stereo not drawn) [Example 1-6-2, 2-Morpholino-N-(6-(4-morpholino-6-oxo-1,6-dihydropyridin-2-yl)thianthren-2-yl)butanamide]
6.30 to 7.00 | O=c1cc(N2CCOCC2)cc(-c2cccc3c2Oc2ccc(NCc4cncc(F)c4)cc2C3)[nH]1 [Example 2-2-10, 6-(7-(((5-Fluoropyridin-3-yl)methyl)amino)-9H-xanthen-4-yl)-4-morpholino pyridin-2 (1H)-one]
6.30 to 7.00 | Cc1ccc(C(C[C@@H]2CCCN2C)Nc2ccc3c(c2)Sc2cccc(-c4cc(N5CCOCC5)cc(=O)[nH]4)c2S3)nc1 (single isomer, unassigned) [Example 12-2]
6.30 to 7.00 | Nc1ccc(CCN2CCC(Nc3ccc4c(c3)Cc3cccc(-c5cc(N6CCOCC6)cc(=O)[nH]5)c3O4)CC2)cc1 [Example 2-31, hydrochloride of 6-(7-((1-(4-aminophenethyl)piperidin-4-yl)amino)-9H-xanthen-4-yl)-4-morpholinopyridin-2(1H)-one]
6.30 to 7.00 | COc1ncc(C(C)Nc2ccc3c(c2)Cc2cccc(-c4cc(N5CCOCC5)cc(=O)[nH]4)c2O3)cn1 (stereo not drawn) [Example 2-14-55, 6-(7-((1-(2-Methoxypyrimidin-5-yl)ethyl)amino)-9H-xanthen-4-yl)-4-morpholino pyridin-2 (1H)-one]
6.30 to 7.00 | O=c1cc(N2CCOCC2)cc(-c2cccc3c2Oc2ccc(NCc4ccnc(N5CCOCC5)n4)cc2C3)[nH]1 [Example 2-14-69, 4-Morpholino-6-(7-(((2-morpholinopyrimidin-4-yl)methyl)amino)-9H-xanthen-4-yl)pyridin-2(1H)-one]
> 7.00 | CCN(C)CCC(Nc1ccc2c(c1)Sc1cccc(-c3cc(N4CCOCC4)cc(=O)[nH]3)c1S2)c1ccc(C)cn1 (single isomer, unassigned) [Example 1-51-9, 6-(7-((3-(Ethyl(methyl)amino)-1-(5-methylpyridin-2-yl)propyl)amino)thianthren-1-yl)-4-morpholino pyridin-2 (1H)-one]
5.70 to 6.30 | O=c1cc(N2CCOCC2)cc(-c2cccc3c2Sc2ccc(NC(CO)CN4CCCC4)cc2S3)[nH]1 (stereo not drawn) [Example 1-37-3, 6-(7-((1-Hydroxy-3-(pyrrolidin-1-yl)propan-2-yl)amino)thianthren-1-yl)-4-morpholino pyridin-2(1H)-one]
6.30 to 7.00 | Cc1ccnc(C(CO)Nc2ccc3c(c2)Cc2cccc(-c4cc(N5CCOCC5)cc(=O)[nH]4)c2O3)c1 (racemic) [Example 2-14-39, 6-(7-((2-Hydroxy-1-(4-methylpyridin-2-yl)ethyl)amino)-9H-xanthen-4-yl)-4-morpholino pyridin-2 (1H)-one]
6.30 to 7.00 | Cc1ccnc(CN2CCC(Nc3ccc4c(c3)Cc3cccc(-c5cc(N6CCOCC6)cc(=O)[nH]5)c3O4)CC2)c1 [Example 2-28-19, 6-(7-((1-((4-Methylpyridin-2-yl)methyl)piperidin-4-yl)amino)-9H-xanthen-4-yl)-4-morpholino pyridin-2(1H)-one]

pIC50 | Structure (SMILES)
6.30 to 7.00 | CC(CNc1ccc2c(c1)Sc1cccc(-c3cc(N4CCOCC4)cc(=O)[nH]3)c1S2)CN1CCOCC1 (stereo not drawn) [Example 8-4, 6-(7-((2-Methyl-3-morpholinopropyl)amino)thianthren-1-yl)-4-morpholinopyridin-2(1H)-one]
5.70 to 6.30 | CC(C)(C)OC(=O)N1CCC[C@H]1CNc1ccc2c(c1)Cc1cccc(-c3cc(N4CCOCC4)cc(=O)[nH]3)c1O2 [Example 2-21-3, (S)-tert-Butyl 2-(((5-(4-morpholino-6-oxo-1,6-dihydropyridin-2-yl)-9H-xanthen-2-yl)amino)methyl) pyrrolidine-1-carboxylate]
6.30 to 7.00 | CC(Nc1ccc2c(c1)Sc1cccc(-c3cc(N4CCOCC4)cc(=O)[nH]3)c1S2)c1cc(Cl)ncn1 (stereo not drawn) [Example 1-12-83, 6-(7-((1-(6-Chloropyrimidin-4-yl)ethyl)amino)thianthren-1-yl)-4-morpholino pyridin-2 (1H)-one]
5.70 to 6.30 | COc1ccncc1CNc1ccc2c(c1)Cc1cccc(-c3cc(N4CCOCC4)cc(=O)[nH]3)c1O2 [Example 2-2-34, 6-(7-(((4-Methoxypyridin-3-yl)methyl)amino)-9H-xanthen-4-yl)-4-morpholino pyridin-2(1H)-one]
6.30 to 7.00 | CC(Nc1ccc2c(c1)Cc1cccc(-c3cc(N4CCOCC4)cc(=O)[nH]3)c1O2)c1cccnc1 (single isomer, unassigned) [Example 2-36-2, 4-Morpholino-6-(7-((1-(pyridin-3-yl)ethyl)amino)-9H-xanthen-4-yl)pyridin-2(1H)-one]
6.30 to 7.00 | CN(C)CCN1CCC(Nc2ccc3c(c2)Sc2cccc(-c4cc(N5CCOCC5)cc(=O)[nH]4)c2S3)CC1 [Example 1-29-2, 6-(7-((1-(2-(Dimethylamino)ethyl)piperidin-4-yl)amino)thianthren-1-yl)-4-morpholinopyridin-2(1H)-one]
> 7.00 | O=c1cc(N2CCOCC2)cc(-c2cccc3c2Sc2ccc(NC4CCNCC4)cc2S3)[nH]1 [Example 1-24-15, 4-Morpholino-6-(7-(piperidin-4-ylamino)thianthren-1-yl)pyridin-2(1H)-one]
6.30 to 7.00 | CC(Nc1ccc2c(c1)Sc1cccc(-c3cc(N4CCOCC4)cc(=O)[nH]3)c1S2)C(=O)N1CCCC1 (stereo not drawn) [Example 1-18-4]
> 7.00 | Cc1ccc(C(Nc2ccc3c(c2)Sc2cccc(-c4cc(N5CCOCC5)cc(=O)[nH]4)c2S3)C2CN(CCO)CCO2)nc1 (racemic) [Example 1-57-1, 6-(7-(((4-(2-hydroxyethyl)morpholin-2-yl)(5-methylpyridin-2-yl)methyl)amino)thianthren-1-yl)-4-morpholinopyridin-2(1H)-one]
6.30 to 7.00 | O=c1cc(N2CCOCC2)cc(-c2cccc3c2Sc2ccc(NC4CCCN(C5CCOC5)C4)cc2S3)[nH]1 (stereo not drawn) [Example 1-24-8, 4-Morpholino-6-(7-((1-(tetrahydrofuran-3-yl)piperidin-3-yl)amino)thianthren-1-yl)pyridin-2 (1H)-one]
6.30 to 7.00 | CCCCC(Nc1ccc2c(c1)Sc1cccc(-c3cc(N4CCOCC4)cc(=O)[nH]3)c1S2)[C@H](C)N (stereo partly drawn) [Example 1-20-3, 6-(7-(((2S)-2-Aminoheptan-3-yl)amino)thianthren-1-yl)-4-morpholino pyridin-2(1H)-one]
6.30 to 7.00 | O=c1cc(N2CCOCC2)cc(-c2cccc3c2Sc2ccc(N[C@H](CCN4CCOCC4)CN4CCOCC4)cc2S3)[nH]1 [Example 8-1, (R)-6-(7-((1,4-dimorpholinobutan-2-yl)amino)thianthren-1-yl)-4-morpholinopyridin-2(1H)-one]
6.30 to 7.00 | COc1ccncc1CN1CCC(Nc2ccc3c(c2)Sc2cccc(-c4cc(N5CCOCC5)cc(=O)[nH]4)c2S3)CC1 [Example 1-45, 6-(7-((1-((4-Methoxypyridin-3-yl)methyl)piperidin-4-yl)amino)thianthren-1-yl)-4-morpholinopyridin-2(1H)-one]
> 7.00 | COCCN1CCC(C(Nc2ccc3c(c2)Sc2cccc(-c4cc(N5CCOCC5)cc(=O)[nH]4)c2S3)c2ccc(C)cn2)CC1 (stereo not drawn) [Example 1-56-7, 6-(7-(((1-(2-Methoxyethyl)piperidin-4-yl)(5-methylpyridin-2-yl)methyl)amino)thianthren-1-yl)-4-morpholino pyridin-2(1H)-one]
6.30 to 7.00 | Cc1nccc(C(C)Nc2ccc3c(c2)Sc2cccc(-c4cc(N5CCOCC5)cc(=O)[nH]4)c2S3)n1 (single isomer, unassigned) [Example 1-12-141-2, 6-(7-((1-(2-methylpyrimidin-4-yl)ethyl)amino)thianthren-1-yl)-4-morpholinopyridin-2(1H)-one]
6.30 to 7.00 | O=c1cc(N2CCOCC2)cc(-c2cccc3c2Sc2ccc(NCCN4CC(F)(F)C4)cc2S3)[nH]1 [Example 1-10-3, 6-(7-((2-(3,3-Difluoroazetidin-1-yl)ethyl)amino)thianthren-1-yl)-4-morpholinopyridin-2(1H)-one]
